# Measured values from ChEMBL document CHEMBL1201862, “PubChem BioAssay data set” (2004).
# Calls of active or inactive are those of the source.
# Experiments:
# SUMO-activating enzyme = SUMO-activating enzyme (Homo sapiens, UniProt Q9UBT2); assay: blockers of UBC9-mediated SUMO conjugation – biochemical, AlphaScreen, SUMOylation inhibitor project, confirmation (AID 2018); type: functional
# Cytochrome P450 2C19 = Cytochrome P450 2C19 (Homo sapiens, UniProt P33261); assay: Cytochrome panel assay with activity outcomes. Panel member name: p450-cyp2c19 Compounds with AC50 equal or less than 10 uM are considered active; type: functional
# Cytochrome P450 2C9 = Cytochrome P450 2C9 (Homo sapiens, UniProt P11712)
# Cytochrome P450 2D6 = Cytochrome P450 2D6 (Homo sapiens, UniProt P10635);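 also: CYP2D6 member of a cytochrome P450 panel assay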
# Cytochrome P450 1A2 = biological target: T1, Cytochrome P450 1A2 (Homo sapiens, UniProt P05177);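 also: PubChem cytochrome P450 panel assay, CYP1A2 panel member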
# T1 sequence (P05177 whole entry): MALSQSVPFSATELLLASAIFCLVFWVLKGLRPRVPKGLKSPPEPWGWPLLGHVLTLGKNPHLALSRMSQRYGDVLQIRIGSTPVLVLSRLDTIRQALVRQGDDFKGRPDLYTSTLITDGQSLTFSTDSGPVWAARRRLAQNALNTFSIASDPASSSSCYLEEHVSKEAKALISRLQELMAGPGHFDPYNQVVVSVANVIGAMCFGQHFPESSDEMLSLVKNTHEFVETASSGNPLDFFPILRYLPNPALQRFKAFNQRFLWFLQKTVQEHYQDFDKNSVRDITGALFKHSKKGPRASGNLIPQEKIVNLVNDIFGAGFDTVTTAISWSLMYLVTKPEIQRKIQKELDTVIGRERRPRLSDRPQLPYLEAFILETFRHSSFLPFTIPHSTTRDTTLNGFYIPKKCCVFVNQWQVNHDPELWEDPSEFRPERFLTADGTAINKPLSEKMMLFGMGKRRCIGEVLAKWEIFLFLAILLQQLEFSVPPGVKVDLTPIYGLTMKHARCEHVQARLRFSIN
# BJ [1] = assay: BJ-TERT fibroblast viability loss – cell-based, RAS-independent, luminescence, dose response (AID 1933); type: functional; details: Homo sapiens
# BJ [2] = assay: cells; type: functional, cell-based; details: Homo sapiens
# [3] = DRD fibroblast viability loss – cell-based, non-viral oncogenic, luminescence, dose response (AID 1934); type: functional; details: Homo sapiens
# [4] = HEK-293T viability loss after treatment – luminescence, T-cell screen hits, cytotoxicity control for TCR NF-kB inhibitor project, dose response (AID 489026); type: functional, cell-based;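 also: cells exposed to compound about 14 hours before the viability readout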
# [5] = biological target: T2, DNA repair and recombination protein RAD54-like (Homo sapiens, UniProt Q92698); assay: RAD54 Holliday junction migration blockers – biochemical, fluorescence, cherry-picked samples, dose series, confirmation (AID 651657); type: functional
# T2 sequence (Q92698 whole entry): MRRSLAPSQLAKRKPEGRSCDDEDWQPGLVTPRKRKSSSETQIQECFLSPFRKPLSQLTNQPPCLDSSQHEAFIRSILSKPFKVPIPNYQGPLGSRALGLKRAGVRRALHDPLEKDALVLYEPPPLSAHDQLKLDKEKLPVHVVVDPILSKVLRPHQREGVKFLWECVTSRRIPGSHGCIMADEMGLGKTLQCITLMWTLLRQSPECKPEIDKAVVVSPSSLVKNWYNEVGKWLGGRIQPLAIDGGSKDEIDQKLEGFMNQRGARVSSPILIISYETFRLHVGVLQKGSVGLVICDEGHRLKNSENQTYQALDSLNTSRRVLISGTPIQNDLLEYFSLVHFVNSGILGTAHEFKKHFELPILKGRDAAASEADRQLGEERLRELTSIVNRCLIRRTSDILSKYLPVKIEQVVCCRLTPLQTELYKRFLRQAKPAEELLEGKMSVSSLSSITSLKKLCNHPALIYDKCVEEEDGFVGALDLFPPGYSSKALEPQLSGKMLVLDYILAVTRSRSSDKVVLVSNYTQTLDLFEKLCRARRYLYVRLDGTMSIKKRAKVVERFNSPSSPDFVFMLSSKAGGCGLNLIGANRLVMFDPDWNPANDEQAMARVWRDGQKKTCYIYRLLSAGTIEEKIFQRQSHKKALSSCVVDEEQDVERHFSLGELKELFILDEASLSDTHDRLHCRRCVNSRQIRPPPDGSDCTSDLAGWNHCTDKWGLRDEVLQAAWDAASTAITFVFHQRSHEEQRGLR
# [6] = Luminescence Cell-Based Dose Confirmation HTS to Identify Activators of 5'UTR Stem-Loop Driven Alpha-Synuclein mRNA Translation in H4 Neuroglioblastoma Cells. [Related pubchem assays: 1829 (Project Summary), 1814 (Primary HTS)]; type: functional
# [7] = Luminescence Cell-Based Dose Response HTS to Identify Activators of Luciferase Translation or Activity in H4 […] Cells. [Related pubchem assays: 1829 (Project Summary), 1814 (Primary HTS)]; type: functional
# H4 = assay: Luminescence Cell-Based Dose Response HTS to Identify Activators of 5'UTR Stem-Loop Driven Prion Protein mRNA Translation in H4 Neuroglioblastoma Cells. [Related pubchem assays: 1829 (Project Summary), 1814 (Primary HTS)]; type: functional; details: Homo sapiens
# [8] = biological target: Dual specificity tyrosine-phosphorylation-regulated kinase 1A (Rattus norvegicus, UniProt Q63470); type: biochemical, Homo sapiens
# Vero = assay: cells; type: functional; details: Chlorocebus sabaeus
# [9] = tested on: Streptococcus sp. 'group A'; assay: Streptococcus pyogenes SK(-)GAS viability under kanamycin – luminescence, BacTiterGlo, confirmation, counter-screen for streptokinase expression inhibitor project, dose response (AID 1900); type: functional, organism-based
# Streptococcus = assay: GAS UMAA2166 growth inhibition – luminescence, BacTiterGlo, counter-screen for streptokinase expression inhibitor project, dose response (AID 1915); type: functional, organism-based;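 also: potency for reduction of bacterial viability or growth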
# Nonstructural protein 1 = Nonstructural protein 1 (Influenza A virus, UniProt Q194T2); type: functional, Influenza A virus (A/California/07/2009(H1N1))
# [10] = biological target: T3, Replicative DNA helicase DnaB (Mycobacterium tuberculosis, UniProt P9WMR3); assay: DnaB intein splicing inhibitors, dose response, biochemical, cell-free fluorescence (AID 449749); type: functional
# T3 sequence (P9WMR3 whole entry): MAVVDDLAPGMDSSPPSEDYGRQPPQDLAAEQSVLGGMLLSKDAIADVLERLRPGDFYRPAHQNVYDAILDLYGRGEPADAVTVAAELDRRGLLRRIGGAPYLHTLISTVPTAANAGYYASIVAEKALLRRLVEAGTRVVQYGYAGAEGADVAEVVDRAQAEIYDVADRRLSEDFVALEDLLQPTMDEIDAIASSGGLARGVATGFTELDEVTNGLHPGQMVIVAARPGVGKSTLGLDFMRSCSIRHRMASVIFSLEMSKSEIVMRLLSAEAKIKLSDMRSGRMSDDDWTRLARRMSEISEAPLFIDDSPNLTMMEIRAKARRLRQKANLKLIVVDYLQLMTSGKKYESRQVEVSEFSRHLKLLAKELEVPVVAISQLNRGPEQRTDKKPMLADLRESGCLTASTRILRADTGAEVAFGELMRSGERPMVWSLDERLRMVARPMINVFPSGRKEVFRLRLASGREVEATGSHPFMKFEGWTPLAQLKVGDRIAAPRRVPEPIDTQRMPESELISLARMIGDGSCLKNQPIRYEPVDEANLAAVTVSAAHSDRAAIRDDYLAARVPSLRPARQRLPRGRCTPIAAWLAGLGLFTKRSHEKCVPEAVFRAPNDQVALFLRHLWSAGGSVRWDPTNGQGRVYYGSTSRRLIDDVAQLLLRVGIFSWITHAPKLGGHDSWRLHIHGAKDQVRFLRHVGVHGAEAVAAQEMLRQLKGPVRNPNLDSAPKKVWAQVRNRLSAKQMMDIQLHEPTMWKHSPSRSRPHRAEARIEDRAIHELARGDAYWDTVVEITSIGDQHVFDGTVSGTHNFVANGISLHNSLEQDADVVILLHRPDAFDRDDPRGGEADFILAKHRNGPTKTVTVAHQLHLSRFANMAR
# Protein RecA = biological target: T4, Protein RecA (Mycobacterium tuberculosis, UniProt P9WHJ3); assay: Fluorescence Cell-Free Homogeneous Dose Retest to Identify Inhibitors of RecA-Intein Splicing Activity. [Related pubchem assays (depositor defined):AID2097, AID2223, AID489010, AID492950]; type: functional
# T4 sequence (P9WHJ3 whole entry): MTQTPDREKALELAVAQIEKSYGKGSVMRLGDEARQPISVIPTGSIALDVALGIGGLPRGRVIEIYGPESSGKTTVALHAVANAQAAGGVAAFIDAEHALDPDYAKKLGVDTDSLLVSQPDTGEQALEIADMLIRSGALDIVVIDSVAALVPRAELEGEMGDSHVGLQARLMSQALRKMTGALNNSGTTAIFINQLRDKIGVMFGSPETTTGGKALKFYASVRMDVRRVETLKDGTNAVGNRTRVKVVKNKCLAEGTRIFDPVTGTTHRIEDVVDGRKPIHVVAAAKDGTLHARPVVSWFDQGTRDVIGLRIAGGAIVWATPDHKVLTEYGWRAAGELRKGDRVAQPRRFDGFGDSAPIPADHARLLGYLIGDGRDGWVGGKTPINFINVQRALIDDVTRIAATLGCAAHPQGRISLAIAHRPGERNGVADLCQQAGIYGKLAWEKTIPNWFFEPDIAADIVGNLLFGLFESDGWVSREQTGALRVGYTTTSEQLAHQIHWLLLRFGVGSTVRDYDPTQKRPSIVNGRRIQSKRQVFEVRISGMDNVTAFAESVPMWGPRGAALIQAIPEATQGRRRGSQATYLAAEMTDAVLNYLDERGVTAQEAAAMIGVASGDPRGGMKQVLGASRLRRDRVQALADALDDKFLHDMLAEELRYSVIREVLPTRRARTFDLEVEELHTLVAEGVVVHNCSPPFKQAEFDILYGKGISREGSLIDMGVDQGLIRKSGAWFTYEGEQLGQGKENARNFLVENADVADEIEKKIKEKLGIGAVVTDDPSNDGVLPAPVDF
# Sequence of Cytochrome P450 2C19 (P33261 whole entry): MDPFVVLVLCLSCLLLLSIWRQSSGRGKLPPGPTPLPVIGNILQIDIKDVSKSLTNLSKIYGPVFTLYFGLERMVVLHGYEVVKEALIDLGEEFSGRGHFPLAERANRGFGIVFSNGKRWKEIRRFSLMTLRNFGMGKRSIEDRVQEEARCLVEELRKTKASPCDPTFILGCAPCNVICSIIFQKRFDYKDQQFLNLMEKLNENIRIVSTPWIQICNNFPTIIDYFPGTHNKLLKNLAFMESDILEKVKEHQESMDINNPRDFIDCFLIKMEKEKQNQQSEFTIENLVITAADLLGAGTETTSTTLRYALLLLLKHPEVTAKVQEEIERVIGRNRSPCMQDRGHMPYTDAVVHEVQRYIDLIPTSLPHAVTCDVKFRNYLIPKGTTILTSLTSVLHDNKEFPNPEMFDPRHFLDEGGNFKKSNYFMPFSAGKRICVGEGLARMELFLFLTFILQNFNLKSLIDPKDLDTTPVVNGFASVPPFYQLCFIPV
# Sequence of Cytochrome P450 2D6 (P10635 whole entry): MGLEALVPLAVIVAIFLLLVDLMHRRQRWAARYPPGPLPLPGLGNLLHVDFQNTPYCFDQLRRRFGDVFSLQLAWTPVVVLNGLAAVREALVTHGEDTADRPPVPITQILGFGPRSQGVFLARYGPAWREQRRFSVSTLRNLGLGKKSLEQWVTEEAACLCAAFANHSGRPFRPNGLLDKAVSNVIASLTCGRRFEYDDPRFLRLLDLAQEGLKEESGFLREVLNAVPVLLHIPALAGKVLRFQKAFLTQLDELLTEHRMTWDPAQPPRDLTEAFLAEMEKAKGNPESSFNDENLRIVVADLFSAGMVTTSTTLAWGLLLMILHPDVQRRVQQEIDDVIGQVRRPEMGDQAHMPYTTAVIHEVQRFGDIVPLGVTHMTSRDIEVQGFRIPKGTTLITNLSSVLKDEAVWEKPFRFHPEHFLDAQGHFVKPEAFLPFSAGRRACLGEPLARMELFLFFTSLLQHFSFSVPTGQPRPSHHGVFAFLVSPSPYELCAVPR
# Sequence of SUMO-activating enzyme (Q9UBE0 whole entry): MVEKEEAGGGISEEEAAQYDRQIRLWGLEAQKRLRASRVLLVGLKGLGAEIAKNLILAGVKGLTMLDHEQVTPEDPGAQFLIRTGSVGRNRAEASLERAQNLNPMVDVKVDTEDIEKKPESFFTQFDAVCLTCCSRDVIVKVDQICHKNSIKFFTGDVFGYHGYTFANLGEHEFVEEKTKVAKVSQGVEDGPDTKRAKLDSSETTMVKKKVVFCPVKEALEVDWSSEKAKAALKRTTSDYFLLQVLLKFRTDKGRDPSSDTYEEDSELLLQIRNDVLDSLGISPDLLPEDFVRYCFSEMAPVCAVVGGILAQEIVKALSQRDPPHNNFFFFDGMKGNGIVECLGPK
# Sequence of SUMO-activating enzyme (Q9UBT2 whole entry): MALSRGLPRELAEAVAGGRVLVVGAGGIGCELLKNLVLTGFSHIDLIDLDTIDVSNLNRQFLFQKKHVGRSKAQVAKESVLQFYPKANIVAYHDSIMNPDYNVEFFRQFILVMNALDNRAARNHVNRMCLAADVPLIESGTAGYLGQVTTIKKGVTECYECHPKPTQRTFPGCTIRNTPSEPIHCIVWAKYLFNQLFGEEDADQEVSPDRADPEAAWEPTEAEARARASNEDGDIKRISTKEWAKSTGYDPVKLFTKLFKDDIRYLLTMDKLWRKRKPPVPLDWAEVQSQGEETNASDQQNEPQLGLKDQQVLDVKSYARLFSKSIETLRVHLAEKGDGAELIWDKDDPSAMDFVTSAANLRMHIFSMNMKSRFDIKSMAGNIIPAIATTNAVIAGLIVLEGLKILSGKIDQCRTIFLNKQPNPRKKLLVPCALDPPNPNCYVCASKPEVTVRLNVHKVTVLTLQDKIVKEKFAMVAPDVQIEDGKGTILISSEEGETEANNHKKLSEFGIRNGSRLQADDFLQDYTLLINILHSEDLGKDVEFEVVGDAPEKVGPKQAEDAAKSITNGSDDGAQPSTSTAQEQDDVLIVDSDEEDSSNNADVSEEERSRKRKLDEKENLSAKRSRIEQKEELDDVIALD
# Sequence of Cytochrome P450 2C9 (P11712 whole entry): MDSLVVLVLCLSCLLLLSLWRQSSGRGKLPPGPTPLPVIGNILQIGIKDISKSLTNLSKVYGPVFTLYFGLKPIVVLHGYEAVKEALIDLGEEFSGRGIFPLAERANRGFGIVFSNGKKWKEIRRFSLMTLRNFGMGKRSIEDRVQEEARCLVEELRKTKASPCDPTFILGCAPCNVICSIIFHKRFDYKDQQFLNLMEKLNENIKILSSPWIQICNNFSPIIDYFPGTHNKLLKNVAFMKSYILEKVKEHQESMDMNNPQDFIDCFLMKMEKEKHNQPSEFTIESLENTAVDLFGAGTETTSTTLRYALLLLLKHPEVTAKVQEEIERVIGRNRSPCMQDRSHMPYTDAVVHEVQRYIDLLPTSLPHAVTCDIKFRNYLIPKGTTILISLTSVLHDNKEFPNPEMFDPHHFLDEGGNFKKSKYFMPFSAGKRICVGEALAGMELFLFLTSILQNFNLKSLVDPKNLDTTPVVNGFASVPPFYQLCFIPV
# Sequence of Nonstructural protein 1 (Q194T2 whole entry): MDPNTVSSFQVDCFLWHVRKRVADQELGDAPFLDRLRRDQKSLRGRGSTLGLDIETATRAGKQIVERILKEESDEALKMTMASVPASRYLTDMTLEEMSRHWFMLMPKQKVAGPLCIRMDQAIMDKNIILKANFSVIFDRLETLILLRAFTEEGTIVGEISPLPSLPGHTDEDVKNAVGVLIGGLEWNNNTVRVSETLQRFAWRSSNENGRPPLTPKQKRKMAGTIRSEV
structure (smiles),measurement,setting,value
Cc1nn(-c2ccccc2)c2sc(C(=O)NNC(=O)COc3ccccc3)cc12,IC50,SUMO-activating enzyme,33.6 µM (active)
CC(C)(C)c1ccc(OC(=O)Cn2c(C(F)(F)F)nc3ccccc32)cc1,AC50,Cytochrome P450 2C19,inconclusive
same,AC50,Cytochrome P450 2C9,0.891 µM (inconclusive)
same,AC50,Cytochrome P450 2D6,inconclusive
CN(C)c1ncnc2c1ncn2CCn1cnc2c(N(C)C)ncnc21,AC50,Cytochrome P450 1A2,6.31 µM (inconclusive)
same,AC50,Cytochrome P450 2D6,inconclusive
COc1cc(-c2noc(C)c2-c2ccc(N(C)C)nc2)cc(OC)c1OC,EC50,BJ [1],0.174 µM (active)
same,EC50,BJ [2],15.7 µM (inconclusive)
same,EC50,[3],4.06 µM (inconclusive)
same,IC50,[4],> 80 µM (inactive)
CCNCCNC(=O)c1c(O)c2cccc3c2n(c1=O)CCC3,AC50,[5],86.3 µM (active)
CCc1ccc2nc(NC(=O)C3CSC4(C)CCC(=O)N34)sc2c1 (stereo not drawn),EC50,[6],> 120 µM (not active)
same,EC50,[7],19.6 µM (active)
same,EC50,H4,6.99 µM (active)
same,AC50,[8],7.62 µM (active)
CN(C)CCNC(=O)c1cc2c(=O)n(C)c3ccccc3c2n1C,AC50,[5],16.2 µM (active)
O=C(O)c1cc2ccccc2c(S(=O)(=O)O)c1O,AC50,Cytochrome P450 2D6,inconclusive
Cc1ccc(C(=O)Nc2sc3c(c2C(=O)NCc2ccco2)CCCC3)cc1,IC50,SUMO-activating enzyme,29.9 µM (active)
CC1CCC(C(C)C)C2=C1C(C#N)(C#N)C(C#N)(C#N)C(c1ccccc1)N2 (stereo not drawn),CC50,Vero,16.7 µM (active)
same,AC50,[8],5.69 µM (active)
COc1cc2cc(c1Cl)N(C)C(=O)C[C@H](OC(=O)C(C)C)[C@]1(C)O[C@@H]1[C@@H](C)[C@H]1C[C@](O)(NC(=O)O1)[C@@H](OC)/C=C\C=C(\C)C2,AC50,Cytochrome P450 2C19,inconclusive
same,AC50,Cytochrome P450 2D6,inconclusive
O=C(NC(=S)NNC(=O)c1ccccc1O)c1ccco1,EC50,[9],3.27 µM (active)
same,EC50,Streptococcus,7.67 µM (active)
same,IC50,Nonstructural protein 1,8.7 µM (active)
same,AC50,[10],95.2 µM (active)
same,EC50,Protein RecA,114 µM (inconclusive)
O=c1c(O[C@@H]2O[C@H](CO)C(O)C2O)c(-c2ccc(O)c(O)c2)oc2cc(O)cc(O)c12 (stereo partly drawn),AC50,[8],18 µM (active)
O=C(N/N=C\c1cn[nH]c1-c1ccc(Cl)cc1)c1cccs1,IC50,SUMO-activating enzyme,> 100 µM (inactive)
COc1ccc(/C=N/N(C(C)=O)c2nc(-c3ccc(C)cc3)cs2)cc1,AC50,Cytochrome P450 2C19; read-out: AC50,0.447 µM (inconclusive)
same,AC50,Cytochrome P450 2C9,3.16 µM (inconclusive)
same,AC50,Cytochrome P450 2D6,inconclusive
O=C(Nc1ccc2ccccc2n1)c1ccccc1,AC50,[8],77.5 µM (active)
